For series [1], the target named is T1, Nitric oxide synthase, inducible (Mus musculus, UniProt P29477).
T1 sequence (P29477 whole entry): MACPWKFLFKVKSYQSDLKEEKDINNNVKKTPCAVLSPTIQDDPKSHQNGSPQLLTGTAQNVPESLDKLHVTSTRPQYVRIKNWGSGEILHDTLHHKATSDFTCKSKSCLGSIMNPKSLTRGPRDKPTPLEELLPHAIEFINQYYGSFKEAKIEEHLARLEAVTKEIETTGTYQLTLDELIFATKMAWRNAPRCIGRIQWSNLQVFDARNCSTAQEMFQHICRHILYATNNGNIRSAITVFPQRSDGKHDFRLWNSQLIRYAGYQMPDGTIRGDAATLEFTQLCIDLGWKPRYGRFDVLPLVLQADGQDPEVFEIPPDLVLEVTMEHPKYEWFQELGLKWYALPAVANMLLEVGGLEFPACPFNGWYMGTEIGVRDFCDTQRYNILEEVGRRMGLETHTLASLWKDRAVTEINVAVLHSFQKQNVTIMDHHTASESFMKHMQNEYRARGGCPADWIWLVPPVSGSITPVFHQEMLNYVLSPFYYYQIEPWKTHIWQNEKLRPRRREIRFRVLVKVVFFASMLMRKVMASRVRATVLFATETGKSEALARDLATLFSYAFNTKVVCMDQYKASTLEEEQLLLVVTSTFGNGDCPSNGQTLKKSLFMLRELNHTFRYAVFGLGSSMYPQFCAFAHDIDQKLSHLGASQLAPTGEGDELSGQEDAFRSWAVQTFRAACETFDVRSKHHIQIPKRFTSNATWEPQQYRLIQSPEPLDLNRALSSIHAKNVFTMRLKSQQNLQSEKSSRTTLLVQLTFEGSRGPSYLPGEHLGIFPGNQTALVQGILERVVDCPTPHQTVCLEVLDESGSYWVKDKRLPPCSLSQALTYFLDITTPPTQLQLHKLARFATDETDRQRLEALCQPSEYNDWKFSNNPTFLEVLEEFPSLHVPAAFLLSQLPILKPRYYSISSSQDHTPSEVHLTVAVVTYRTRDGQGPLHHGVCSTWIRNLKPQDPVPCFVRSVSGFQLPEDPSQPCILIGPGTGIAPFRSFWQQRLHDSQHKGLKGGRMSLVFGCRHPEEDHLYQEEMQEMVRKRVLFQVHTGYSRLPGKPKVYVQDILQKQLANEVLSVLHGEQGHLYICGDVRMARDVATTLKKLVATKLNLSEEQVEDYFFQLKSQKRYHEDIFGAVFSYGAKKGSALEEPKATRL
The experiment in a line: Inhibition of recombinant mouse macrophage iNOS expressed in Escherichia coli using L-arginine as substrate assessed as reduction in NO production measured for 6 mins by hemoglobin capture assay.

Series [2] addresses Nitric oxide synthase 1 (Rattus norvegicus, UniProt P29476). Briefly: Inhibition of rat recombinant nNOS expressed in Escherichia coli using L-arginine as substrate assessed as reduction in NO production measured for 6 mins in presence of tetrahydrobiopterin by hemoglobin capture assay.
In series [3] the target is T2, Cytochrome P450 1A2 (Homo sapiens, UniProt P05177).
T2 sequence (P05177 whole entry): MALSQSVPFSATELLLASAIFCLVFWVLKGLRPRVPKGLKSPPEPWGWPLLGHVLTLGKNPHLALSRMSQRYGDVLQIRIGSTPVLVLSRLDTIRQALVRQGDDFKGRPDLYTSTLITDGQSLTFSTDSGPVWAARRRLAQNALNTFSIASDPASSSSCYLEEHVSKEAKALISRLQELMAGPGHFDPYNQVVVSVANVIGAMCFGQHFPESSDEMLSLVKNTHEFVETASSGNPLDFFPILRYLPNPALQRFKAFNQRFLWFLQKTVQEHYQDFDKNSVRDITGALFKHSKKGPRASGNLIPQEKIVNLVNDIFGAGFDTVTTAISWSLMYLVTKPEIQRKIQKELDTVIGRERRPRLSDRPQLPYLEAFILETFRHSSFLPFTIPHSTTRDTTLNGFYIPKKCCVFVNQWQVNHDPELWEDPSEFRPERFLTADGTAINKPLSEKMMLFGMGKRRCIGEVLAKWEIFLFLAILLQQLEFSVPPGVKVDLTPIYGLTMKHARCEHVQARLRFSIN
The experiment in a line: Inhibition of CYP1A2 in human liver microsomes using phenacetin as substrate at 10 uM preincubated for 5 mins followed by NADPH addition measured after 10 mins by LC-MS/MS analysis relative to control. The class given is ADME. (In general: Microsomes from liver hold many membrane-bound enzymes, among them those of drug oxidation.)

Series [4] can be described thus: Drug metabolism in human liver microsomes at 1 uM preincubated for 5 mins followed by NADPH addition measured after […] mins by LC-MS/MS analysis. The class given is ADME. The conditions noted are these: read-out: Drug metabolism.
The target of series [5] is Cytochrome P450 2C9 (Homo sapiens, UniProt P11712). Briefly: Inhibition of CYP2C9 in human liver microsomes using diclofenac as substrate at 10 uM preincubated for 5 mins followed by NADPH addition measured after 10 mins by LC-MS/MS analysis relative to control. The class given is ADME.
The nature of series [6]: Permeability from apical to basolateral side in human Caco2 cells at 10 uM after 2 hrs by LC-MS/MS analysis. The class given is ADME, cell-based. The conditions noted are these: caco-2, 2 h. (In general: Caco-2 monolayers are a common model of the intestinal barrier.)
In series [7] the target is Cytochrome P450 2D6 (Homo sapiens, UniProt P10635). Briefly: Inhibition of CYP2D6 in human liver microsomes using bufuralol as substrate at 10 uM preincubated for 5 mins followed by NADPH addition measured after 10 mins by LC-MS/MS analysis relative to control. The class given is ADME.
The nature of series [8]: Drug metabolism in human liver microsomes at 1 uM incubated for 60 mins by LC-MS/MS analysis. The class given is ADME. The conditions noted are these: read-out: Drug metabolism.

The record followed here is ChEMBL document CHEMBL3817743, “Potent and Selective Human Neuronal Nitric Oxide Synthase Inhibition by Optimization of the 2-Aminopyridine-Based Scaffold with a Pyridine Linker” (J Med Chem, 2016).

By Ki is commonly meant the dissociation constant of the complex between target and ligand, obtained from inhibition or displacement.

Chain of Nitric oxide synthase 1 (P29476 whole entry): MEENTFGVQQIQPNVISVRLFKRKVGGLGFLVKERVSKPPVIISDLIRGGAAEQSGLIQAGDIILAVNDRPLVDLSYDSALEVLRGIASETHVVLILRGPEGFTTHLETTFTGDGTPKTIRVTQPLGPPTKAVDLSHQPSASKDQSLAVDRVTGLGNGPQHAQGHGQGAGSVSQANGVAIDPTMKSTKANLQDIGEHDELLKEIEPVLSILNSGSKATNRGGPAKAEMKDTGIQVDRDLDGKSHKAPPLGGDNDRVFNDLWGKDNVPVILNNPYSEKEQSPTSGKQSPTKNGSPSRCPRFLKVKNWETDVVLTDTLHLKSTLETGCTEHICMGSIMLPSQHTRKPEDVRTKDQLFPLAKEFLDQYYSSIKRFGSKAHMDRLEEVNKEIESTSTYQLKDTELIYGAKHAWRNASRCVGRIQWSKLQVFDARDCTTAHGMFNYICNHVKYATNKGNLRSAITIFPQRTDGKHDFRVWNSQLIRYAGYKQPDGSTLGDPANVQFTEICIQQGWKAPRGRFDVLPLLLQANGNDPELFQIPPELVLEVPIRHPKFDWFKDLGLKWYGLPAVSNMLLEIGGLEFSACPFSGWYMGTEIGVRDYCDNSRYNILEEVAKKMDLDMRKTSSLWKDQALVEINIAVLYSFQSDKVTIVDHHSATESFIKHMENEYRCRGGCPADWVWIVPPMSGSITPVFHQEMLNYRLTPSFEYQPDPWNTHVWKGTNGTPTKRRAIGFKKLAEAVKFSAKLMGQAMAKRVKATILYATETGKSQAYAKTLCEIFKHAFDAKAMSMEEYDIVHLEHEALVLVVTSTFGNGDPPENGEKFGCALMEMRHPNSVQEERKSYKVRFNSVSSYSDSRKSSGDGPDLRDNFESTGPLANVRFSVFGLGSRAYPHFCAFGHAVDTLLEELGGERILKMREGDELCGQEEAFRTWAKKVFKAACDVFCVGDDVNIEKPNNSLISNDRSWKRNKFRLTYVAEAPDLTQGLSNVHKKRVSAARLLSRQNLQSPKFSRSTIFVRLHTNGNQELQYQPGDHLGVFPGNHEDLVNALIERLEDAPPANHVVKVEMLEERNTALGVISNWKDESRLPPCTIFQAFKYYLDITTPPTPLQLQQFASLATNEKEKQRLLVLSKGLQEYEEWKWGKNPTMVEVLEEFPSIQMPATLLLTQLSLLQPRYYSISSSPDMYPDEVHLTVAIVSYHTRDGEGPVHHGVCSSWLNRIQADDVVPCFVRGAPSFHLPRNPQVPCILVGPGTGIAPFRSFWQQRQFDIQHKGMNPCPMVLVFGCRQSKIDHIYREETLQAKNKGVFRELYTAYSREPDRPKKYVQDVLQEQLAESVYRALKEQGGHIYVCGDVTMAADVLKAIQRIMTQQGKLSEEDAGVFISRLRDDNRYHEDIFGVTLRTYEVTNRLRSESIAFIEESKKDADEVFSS
Chain of Cytochrome P450 2C9 (P11712 whole entry): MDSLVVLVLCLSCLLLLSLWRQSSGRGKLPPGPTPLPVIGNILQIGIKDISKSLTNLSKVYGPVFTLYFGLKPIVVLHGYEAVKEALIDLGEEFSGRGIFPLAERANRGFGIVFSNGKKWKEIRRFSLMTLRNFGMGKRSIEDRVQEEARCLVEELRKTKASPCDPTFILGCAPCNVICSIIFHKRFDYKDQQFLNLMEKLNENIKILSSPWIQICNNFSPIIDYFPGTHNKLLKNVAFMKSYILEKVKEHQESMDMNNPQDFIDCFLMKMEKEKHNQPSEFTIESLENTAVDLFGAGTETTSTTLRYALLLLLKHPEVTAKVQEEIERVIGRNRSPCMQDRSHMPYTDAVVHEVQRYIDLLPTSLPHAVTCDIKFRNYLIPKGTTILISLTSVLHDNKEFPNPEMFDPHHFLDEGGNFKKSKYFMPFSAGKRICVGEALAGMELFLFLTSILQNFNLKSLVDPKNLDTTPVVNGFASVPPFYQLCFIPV
Chain of Cytochrome P450 2D6 (P10635 whole entry): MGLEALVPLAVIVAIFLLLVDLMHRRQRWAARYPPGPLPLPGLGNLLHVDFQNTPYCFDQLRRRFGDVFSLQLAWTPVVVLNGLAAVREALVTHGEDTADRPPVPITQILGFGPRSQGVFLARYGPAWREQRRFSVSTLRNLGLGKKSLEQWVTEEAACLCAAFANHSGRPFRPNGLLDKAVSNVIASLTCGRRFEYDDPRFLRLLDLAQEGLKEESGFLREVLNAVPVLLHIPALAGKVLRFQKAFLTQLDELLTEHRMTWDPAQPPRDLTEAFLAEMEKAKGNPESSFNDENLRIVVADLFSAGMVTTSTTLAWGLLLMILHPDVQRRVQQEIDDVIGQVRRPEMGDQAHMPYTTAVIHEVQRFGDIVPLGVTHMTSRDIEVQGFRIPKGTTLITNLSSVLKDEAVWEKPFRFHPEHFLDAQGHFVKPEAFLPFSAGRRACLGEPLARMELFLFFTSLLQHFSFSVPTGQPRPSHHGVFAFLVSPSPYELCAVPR

For `Cc1cc(N)nc(CCc2cccnc2)c1`, the figures for the Ki in series [1] and in series [2] were 2.78 µM and 706 nM, respectively.

In the case of `CNCCCc1cncc(CCc2cc(C)cc(N)n2)c1`, the “inhibition (INH)” value in series [3] stood at 9%; in series [5], 0%; in series [7], 6%. In series [4], the metabolised at […], 1 µM was found to be 23%. In addition, the permeability entry in series [6] is on record as “impermeable”. For the same compound, the metabolised at 1 h, 1 µM in series [8] is 23%.

With `Cc1cc(N)nc(CCc2cncc(N3CCCCC3)c2)c1`, the values for the Ki in series [1] and in series [2] were 5.64 µM and 1870 nM, respectively.
